According to patent US7138361B2, “Herbicidal heterocycles” (E. I. du Pont de Nemours and Company, priority 2000, dated 2006):

Columns and labels:
Assay type in all cases: in vivo
[1] = system: duck salad (Heteranthera limosa); test: Test C flooded paddy test; details: for Ducksalad plant response rating: Flooded Paddy, scale 0 to 100, 0 no effect, 100 complete control; for Plant response rating, Ducksalad: flooded paddy test, scale 0 to 100 (0 no effect, 100 complete control)
Experimental: (§1) At the same time, plants selected from these crop and weed species and also winter barley (Hordeum vulgare), blackgrass (Alopecurus myosuroides), canary grass (Phalaris minor), chickweed (Stellaria media), downy brome (Bromus tectorum), green foxtail (Setaria viridis), Italian ryegrass (Lolium multiflorum), wheat (Triticum aestivum), wild oat (Avena fatua) and windgrass (Apera spica-venti) were treated with postemergence applications of some of the test chemicals formulated in the same manner. Plants ranged in height from 2 to 18 cm (1- to 4-leaf stage) for postemergence treatments. Plant species in the flooded paddy test consisted of rice (Oryza saliva), smallflower flatsedge (Cyperus difformis), duck salad (Heteranthera limosa) and barnyardgrass (Echinochloa crus-galli) grown to the 2-leaf stage for testing. Treated plants and controls were maintained in a greenhouse for 12 to 14 days, after which time all species were compared to controls and visually evaluated. Plant response ratings, summarized in Table C, are based on a scale of 0 to 100 where 0 is no effect and 100 is complete control. A dash (-) response means no test result.

rice (Oryza saliva) [2] = test: Test C flooded paddy test; details: for Rice plant response rating: Flooded Paddy, scale 0 to 100, 0 no effect, 100 complete control; for Plant response rating, Rice: flooded paddy test, scale 0 to 100 (0 no effect, 100 complete control)
Experimental: as §1

[3] = system: barnyardgrass (Echinochloa crus-galli); test: Test C flooded paddy test; details: for Barnyardgrass plant response rating: Flooded Paddy, scale 0 to 100, 0 no effect, 100 complete control; for Plant response rating, Barnyardgrass: flooded paddy test, scale 0 to 100 (0 no effect, 100 complete control)
Experimental: as §1

[4] = system: smallflower flatsedge (Cyperus difformis); test: Test C flooded paddy test; details: for Flatsedge plant response rating: Flooded Paddy, scale 0 to 100, 0 no effect, 100 complete control; for Plant response rating, Flatsedge: flooded paddy test, scale 0 to 100 (0 no effect, 100 complete control)
Experimental: as §1

[5] = system: blackgrass (Alopecurus myosuroides); test: Test B postemergence; details: 13 to 15 days
Description: (§2) Seeds selected from barnyardgrass (Echinochloa crus-galli), Surinam grass (Brachiaria decumbens), cocklebur (Xanthium strumarium), corn (Zea mays), crabgrass (Digitaria sanguinalis), giant foxtail (Setaria faberii), lambsquarters (Chenopodium album), morning glory (Ipomoea hederacea), pigweed (Amaranthus retroflexus), rice (Oryza saliva) and velvetleaf (Abutilon theophrasti) were planted and treated preemergence with test chemicals formulated in a non-phytotoxic solvent mixture which included a surfactant.
(§3) At the same time, plants selected from these crop and weed species and also blackgrass (Alopecurus myosuroides), wheat (Triticum aestivum) and wild oat (Avena fatua) were treated with postemergence applications of test chemicals formulated in the same manner. Plants ranged in height from 2 to 18 cm (1- to 4-leaf stage) for postemergence treatments. Plant species in the flooded paddy test consisted of rice (Oryza saliva), smallflower flatsedge (Cyperus difformis), duck salad (Heteranthera limosa) and barnyardgrass (Echinochloa crus-galli) grown to the 2-leaf stage for testing. Treated plants and controls were maintained in a greenhouse for 13 to 15 days, after which time all species were compared to controls and visually evaluated. Plant response ratings, summarized in Table B, are based on a scale of 0 to 100 where 0 is no effect and 100 is complete control. A dash (-) response means no test result.

[6] = system: wheat (Triticum aestivum); test: Test B postemergence; details: Rate 500 g/ha, scale 0 to 100, 0 is no effect, 100 is complete control, 13 to 15 days
Description: as §2, §3

[7] = system: giant foxtail (Setaria faberii); test: Test B postemergence; details: 13 to 15 days
Description: as §2, §3

wild oat (Avena fatua) = test: Test B postemergence; details: Rate 500 g/ha, scale 0 to 100, 0 is no effect, 100 is complete control, 13 to 15 days
Description: as §2, §3

corn (Zea mays) [8] = test: Test B postemergence; details: 13 to 15 days
Description: as §2, §3

[9] = system: morning glory (Ipomoea hederacea); test: Test B postemergence; details: Rate 500 g/ha, scale 0 to 100, 0 is no effect, 100 is complete control, 13 to 15 days
Description: as §2, §3

[10] = system: pigweed (Amaranthus retroflexus); test: Test B postemergence; details: Rate 500 g/ha, scale 0 to 100, 0 is no effect, 100 is complete control, 13 to 15 days
Description: as §2, §3

[11] = system: velvetleaf (Abutilon theophrasti); test: Test B postemergence; details: Rate 500 g/ha, scale 0 to 100, 0 is no effect, 100 is complete control, 13 to 15 days
Description: as §2, §3

[12] = system: lambsquarters (Chenopodium album); test: Test B postemergence; details: Rate 500 g/ha, scale 0 to 100, 0 is no effect, 100 is complete control, 13 to 15 days
Description: as §2, §3

[13] = system: Surinam grass (Brachiaria decumbens); test: Test B postemergence; details: 13 to 15 days
Description: as §2, §3

[14] = system: crabgrass (Digitaria sanguinalis); test: Test B postemergence; details: 13 to 15 days
Description: as §2, §3

[15] = system: barnyardgrass (Echinochloa crus-galli); test: Test B postemergence; details: 13 to 15 days
Description: as §2, §3

[16] = system: giant foxtail (Setaria faberii); test: Test B preemergence
Description: as §2, §3

rice (Oryza saliva) [17] = test: Test B preemergence
Description: as §2, §3

corn (Zea mays) [18] = test: Test B preemergence
Description: as §2, §3

[19] = system: morning glory (Ipomoea hederacea); test: Test B preemergence
Description: as §2, §3

[20] = system: cocklebur (Xanthium strumarium); test: Test B preemergence
Description: as §2, §3

[21] = system: pigweed (Amaranthus retroflexus); test: Test B preemergence
Description: as §2, §3

[22] = system: velvetleaf (Abutilon theophrasti); test: Test B preemergence
Description: as §2, §3

[23] = system: lambsquarters (Chenopodium album); test: Test B preemergence
Description: as §2, §3

[24] = system: Surinam grass (Brachiaria decumbens); test: Test B preemergence
Description: as §2, §3

[25] = system: crabgrass (Digitaria sanguinalis); test: Test B preemergence
Description: as §2, §3

[26] = system: barnyardgrass (Echinochloa crus-galli); test: Test B preemergence
Description: as §2, §3

[27] = Rate 125 g/ha, scale 0 (no effect) to 100 (complete control)
[28] = Rate 500 g/ha, scale 0 to 100, 0 is no effect, 100 is complete control
[29] = Preemergence, Rate 500 g/ha, scale 0 to 100, 0 no effect, 100 complete control
[30] = preemergence, Rate 125 g/ha, scale of 0 to 100 where 0 is no effect and 100 is complete control, 13 to 15 days

## CCCCC(C)c1ccn(C2OCN(c3cccc(C(F)(F)F)c3)C2=O)n1 (centres unmarked) [Compound 98]
[1]; Rate 250 g/ha
  Ducksalad plant response rating: 0
[1]; Rate 500 g/ha
  Ducksalad plant response rating: 0
[1]; Rate 62 g/ha
  Plant response rating, Ducksalad: 0
[1]; Rate 125 g/ha
  Plant response rating, Ducksalad: 0
Rice (Oryza saliva) [2]; Rate 250 g/ha
  Rice plant response rating: 50
Rice (Oryza saliva) [2]; Rate 500 g/ha
  Rice plant response rating: 50
Rice (Oryza saliva) [2]; Rate 62 g/ha
  Plant response rating, Rice: 0
Rice (Oryza saliva) [2]; Rate 125 g/ha
  Plant response rating, Rice: 50
[3]; Rate 250 g/ha
  Barnyardgrass plant response rating: 30
[3]; Rate 500 g/ha
  Barnyardgrass plant response rating: 50
[3]; Rate 62 g/ha
  Plant response rating, Barnyardgrass: 0
[3]; Rate 125 g/ha
  Plant response rating, Barnyardgrass: 0
[4]; Rate 250 g/ha
  Flatsedge plant response rating: 90
[4]; Rate 500 g/ha
  Flatsedge plant response rating: 90
[4]; Rate 62 g/ha
  Plant response rating, Flatsedge: 60
[4]; Rate 125 g/ha
  Plant response rating, Flatsedge: 80
[5]; [27]
  Plant response rating, Blackgrass: 0
[5]; [28]
  Plant response rating, Blackgrass: 0
[6]
  Plant response rating, Wheat: 0
[7]; [27]
  Plant response rating, Foxtail, Giant: 0
[7]; [28]
  Plant response rating, Foxtail, Giant: 20
Wild oat (Avena fatua)
  Plant response rating, Wild Oat: 0
Corn (Zea mays) [8]; [27]
  Plant response rating, Corn: 0
Corn (Zea mays) [8]; [28]
  Plant response rating, Corn: 0
[9]
  Plant response rating, Morningglory: 0
[10]
  Plant response rating, Pigweed: 100
[11]
  Plant response rating, Velvetleaf: 20
[12]
  Plant response rating, Lambsquarters: 80
[13]; [27]
  Plant response rating, Surinam grass: 0
[13]; [28]
  Plant response rating, Surinam grass: 0
[14]; [27]
  Plant response rating, Crabgrass: 0
[14]; [28]
  Plant response rating, Crabgrass: 20
[15]; [27]
  Plant response rating, Barnyardgrass: 0
[15]; [28]
  Plant response rating, Barnyardgrass: 0
[16]; [29]
  Plant response rating, Foxtail, Giant: 90
[16]; [30]
  Plant response rating, Foxtail, Giant: 0
Rice (Oryza saliva) [17]; [29]
  Plant response rating, Rice: 30
Rice (Oryza saliva) [17]; [30]
  Plant response rating, Rice: 0
Corn (Zea mays) [18]; [29]
  Plant response rating, Corn: 0
Corn (Zea mays) [18]; [30]
  Plant response rating, Corn: 0
[19]; [29]
  Plant response rating, Morningglory: 0
[19]; [30]
  Plant response rating, Morningglory: 0
[20]; [29]
  Plant response rating, Cocklebur: 0
[20]; [30]
  Plant response rating, Cocklebur: 0
[21]; [29]
  Plant response rating, Pigweed: 40
[21]; [30]
  Plant response rating, Pigweed: 0
[22]; [29]
  Plant response rating, Velvetleaf: 0
[22]; [30]
  Plant response rating, Velvetleaf: 0
[23]; [29]
  Plant response rating, Lambsquarters: 100
[23]; [30]
  Plant response rating, Lambsquarters: 60
[24]; [29]
  Plant response rating, Surinam grass: 0
[24]; [30]
  Plant response rating, Surinam grass: 0
[25]; [29]
  Plant response rating, Crabgrass: 100
[25]; [30]
  Plant response rating, Crabgrass: 0
[26]; [29]
  Plant response rating, Barnyardgrass: 90
[26]; [30]
  Plant response rating, Barnyardgrass: 0
